Experiments:
[1] = target: AP2-associated protein kinase 1 (Homo sapiens) (UniProt Q2M2I8); assay: Binding affinity to human wild-type AAK1 (G25 to L333 residues) expressed in bacterial expression system assessed as residual binding level at 10 uM by Kinomescan method relative to control
[2] = tested on: Tyrosine-protein kinase ABL1 (Homo sapiens), P00519 [H396P]; assay: Binding affinity to human phosphorylated ABL1 H396P mutant (S229 to K512 residues) expressed in mammalian expression system assessed as residual binding level at 10 uM by Kinomescan method relative to control
[3] = tested on: Tyrosine-protein kinase ABL1 (Homo sapiens), P00519 [Y253F]; assay: Binding affinity to human phosphorylated ABL1 Y253F mutant (S229 to K512 residues) expressed in mammalian expression system assessed as residual binding level at 10 uM by Kinomescan method relative to control
[4] = target: Cyclin-dependent kinase 2 (Homo sapiens) (UniProt P24941); assay: Binding affinity to wild-type human full length CDK2 (M1 to L298 residues) expressed in bacterial expression system assessed as residual binding level at 10 uM by Kinomescan method relative to control
[5] = target: Cyclin-dependent kinase-like 2 (Homo sapiens) (UniProt Q92772); assay: Binding affinity to wild-type human partial length CDKL2 (M1 to D327 residues) expressed in bacterial expression system assessed as residual binding level at 10 uM by Kinomescan method relative to control
[6] = target: Serine/threonine-protein kinase DCLK2 (Homo sapiens) (UniProt Q8N568); assay: Binding affinity to wild-type human partial length DCAMKL2 (K273 to V664 residues) expressed in bacterial expression system assessed as residual binding level at 10 uM by Kinomescan method relative to control
Chain of Serine/threonine-protein kinase DCLK2 (Homo sapiens) (Q8N568 whole entry, the tested form may be a part): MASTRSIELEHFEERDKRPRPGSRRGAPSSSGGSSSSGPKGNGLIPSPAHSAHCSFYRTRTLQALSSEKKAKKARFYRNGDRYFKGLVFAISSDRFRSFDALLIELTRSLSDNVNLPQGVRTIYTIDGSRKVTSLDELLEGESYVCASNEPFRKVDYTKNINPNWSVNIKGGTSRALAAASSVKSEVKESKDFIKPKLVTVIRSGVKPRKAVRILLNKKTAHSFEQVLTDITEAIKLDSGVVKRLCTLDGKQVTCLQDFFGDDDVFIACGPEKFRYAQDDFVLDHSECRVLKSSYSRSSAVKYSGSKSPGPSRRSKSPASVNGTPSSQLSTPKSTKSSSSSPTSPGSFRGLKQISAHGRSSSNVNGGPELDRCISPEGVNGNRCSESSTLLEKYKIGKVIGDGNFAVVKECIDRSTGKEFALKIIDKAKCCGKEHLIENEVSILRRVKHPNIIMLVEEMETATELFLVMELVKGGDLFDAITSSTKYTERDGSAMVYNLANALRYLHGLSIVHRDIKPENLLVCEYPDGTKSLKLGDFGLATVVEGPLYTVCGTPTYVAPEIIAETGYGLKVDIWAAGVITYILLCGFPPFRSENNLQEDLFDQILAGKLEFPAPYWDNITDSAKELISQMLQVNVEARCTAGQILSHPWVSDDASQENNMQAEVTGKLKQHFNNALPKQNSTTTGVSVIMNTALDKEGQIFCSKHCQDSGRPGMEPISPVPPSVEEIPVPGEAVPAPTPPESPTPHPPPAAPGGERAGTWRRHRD

[7] = tested on: Epidermal growth factor receptor (Homo sapiens), P00533 [UNDEFINED MUTATION]; assay: Binding affinity to human partial length EGFR E746-A750del mutant expressed in bacterial expression system assessed as residual binding level at 10 uM by Kinomescan method relative to control
[8] = tested on: Epidermal growth factor receptor (Homo sapiens), P00533 [G719S]; assay: Binding affinity to human partial length EGFR G719S mutant (R669 to V1011 residues) expressed in bacterial expression system assessed as residual binding level at 10 uM by Kinomescan method relative to control
[9] = target: Receptor tyrosine-protein kinase erbB-3 (Homo sapiens) (UniProt P21860); assay: Binding affinity to wild-type human partial length ERBB3 (G684 to A987 residues) expressed in mammalian expression system assessed as residual binding level at 10 uM by Kinomescan method relative to control
[10] = target: Mitogen-activated protein kinase 1 (Homo sapiens) (UniProt P28482); assay: Binding affinity to wild-type human full length ERK2 (M1 to S360 residues) expressed in bacterial expression system assessed as residual binding level at 10 uM by Kinomescan method relative to control
Chain of Mitogen-activated protein kinase 1 (Homo sapiens) (P28482 whole entry, the tested form may be a part): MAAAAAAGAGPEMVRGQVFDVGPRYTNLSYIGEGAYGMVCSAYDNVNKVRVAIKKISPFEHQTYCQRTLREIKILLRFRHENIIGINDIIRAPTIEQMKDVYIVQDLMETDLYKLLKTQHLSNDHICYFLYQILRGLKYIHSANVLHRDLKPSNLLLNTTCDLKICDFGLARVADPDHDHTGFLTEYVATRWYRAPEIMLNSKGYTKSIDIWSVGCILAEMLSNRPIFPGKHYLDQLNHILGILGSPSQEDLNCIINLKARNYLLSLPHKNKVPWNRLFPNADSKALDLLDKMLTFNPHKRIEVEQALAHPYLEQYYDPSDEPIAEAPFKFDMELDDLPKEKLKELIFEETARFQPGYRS

[11] = target: Hormonally up-regulated neu tumor-associated kinase (Homo sapiens) (UniProt P57058); assay: Binding affinity to wild-type human partial length HUNK (A31 to K354 residues) expressed in bacterial expression system assessed as residual binding level at 10 uM by Kinomescan method relative to control
[12] = target: Mitogen-activated protein kinase 8 (Homo sapiens) (UniProt P45983); assay: Binding affinity to wild-type human full length JNK1 (M1 to Q384 residues) expressed in mammalian expression system assessed as residual binding level at 10 uM by Kinomescan method relative to control
[13] = target: LIM domain kinase 2 (Homo sapiens) (UniProt P53671); assay: Binding affinity to wild-type human full length LIMK2 (M1 to P638 residues) expressed in bacterial expression system assessed as residual binding level at 10 uM by Kinomescan method relative to control
Chain of LIM domain kinase 2 (Homo sapiens) (P53671 whole entry, looked up, the tested form may be a part): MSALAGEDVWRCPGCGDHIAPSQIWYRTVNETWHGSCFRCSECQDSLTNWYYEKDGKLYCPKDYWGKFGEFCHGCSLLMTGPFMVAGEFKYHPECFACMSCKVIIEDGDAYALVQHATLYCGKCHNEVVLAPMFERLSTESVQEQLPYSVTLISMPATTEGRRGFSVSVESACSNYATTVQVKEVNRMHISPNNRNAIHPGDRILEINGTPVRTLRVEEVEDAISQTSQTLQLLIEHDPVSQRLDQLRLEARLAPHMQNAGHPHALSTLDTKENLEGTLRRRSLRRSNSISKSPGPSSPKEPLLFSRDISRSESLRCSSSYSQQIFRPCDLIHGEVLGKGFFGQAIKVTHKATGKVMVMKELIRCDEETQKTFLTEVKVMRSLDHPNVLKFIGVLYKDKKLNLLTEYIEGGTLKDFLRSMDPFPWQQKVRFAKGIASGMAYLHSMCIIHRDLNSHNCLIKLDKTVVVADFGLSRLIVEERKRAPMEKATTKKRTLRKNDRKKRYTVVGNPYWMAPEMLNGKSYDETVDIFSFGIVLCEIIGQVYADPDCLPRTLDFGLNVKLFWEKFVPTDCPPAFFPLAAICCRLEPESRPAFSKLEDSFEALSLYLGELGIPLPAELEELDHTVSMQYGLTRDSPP

[14] = target: Dual specificity mitogen-activated protein kinase kinase 7 (Homo sapiens) (UniProt O14733); assay: Binding affinity to wild-type human full length MKK7 (M1 to R419 residues) expressed in mammalian expression system assessed as residual binding level at 10 uM by Kinomescan method relative to control
[15] = target: MAP kinase-interacting serine/threonine-protein kinase 1 (Homo sapiens) (UniProt Q9BUB5); assay: Binding affinity to wild-type human full length MKNK1 (M1 to L424 residues) expressed in mammalian expression system assessed as residual binding level at 10 uM by Kinomescan method relative to control
[16] = target: Muscle, skeletal receptor tyrosine-protein kinase (Homo sapiens) (UniProt O15146); assay: Binding affinity to wild-type human partial length MUSK (M553 to V869 residues) expressed in bacterial expression system assessed as residual binding level at 10 uM by Kinomescan method relative to control
[17] = target: Myosin-IIIa (Homo sapiens) (UniProt Q8NEV4); assay: Binding affinity to wild-type human partial length MYO3A (M1 to K338 residues) expressed in bacterial expression system assessed as residual binding level at 10 uM by Kinomescan method relative to control
Chain of Myosin-IIIa (Homo sapiens) (Q8NEV4 whole entry, the tested form may be a part, canonical isoform): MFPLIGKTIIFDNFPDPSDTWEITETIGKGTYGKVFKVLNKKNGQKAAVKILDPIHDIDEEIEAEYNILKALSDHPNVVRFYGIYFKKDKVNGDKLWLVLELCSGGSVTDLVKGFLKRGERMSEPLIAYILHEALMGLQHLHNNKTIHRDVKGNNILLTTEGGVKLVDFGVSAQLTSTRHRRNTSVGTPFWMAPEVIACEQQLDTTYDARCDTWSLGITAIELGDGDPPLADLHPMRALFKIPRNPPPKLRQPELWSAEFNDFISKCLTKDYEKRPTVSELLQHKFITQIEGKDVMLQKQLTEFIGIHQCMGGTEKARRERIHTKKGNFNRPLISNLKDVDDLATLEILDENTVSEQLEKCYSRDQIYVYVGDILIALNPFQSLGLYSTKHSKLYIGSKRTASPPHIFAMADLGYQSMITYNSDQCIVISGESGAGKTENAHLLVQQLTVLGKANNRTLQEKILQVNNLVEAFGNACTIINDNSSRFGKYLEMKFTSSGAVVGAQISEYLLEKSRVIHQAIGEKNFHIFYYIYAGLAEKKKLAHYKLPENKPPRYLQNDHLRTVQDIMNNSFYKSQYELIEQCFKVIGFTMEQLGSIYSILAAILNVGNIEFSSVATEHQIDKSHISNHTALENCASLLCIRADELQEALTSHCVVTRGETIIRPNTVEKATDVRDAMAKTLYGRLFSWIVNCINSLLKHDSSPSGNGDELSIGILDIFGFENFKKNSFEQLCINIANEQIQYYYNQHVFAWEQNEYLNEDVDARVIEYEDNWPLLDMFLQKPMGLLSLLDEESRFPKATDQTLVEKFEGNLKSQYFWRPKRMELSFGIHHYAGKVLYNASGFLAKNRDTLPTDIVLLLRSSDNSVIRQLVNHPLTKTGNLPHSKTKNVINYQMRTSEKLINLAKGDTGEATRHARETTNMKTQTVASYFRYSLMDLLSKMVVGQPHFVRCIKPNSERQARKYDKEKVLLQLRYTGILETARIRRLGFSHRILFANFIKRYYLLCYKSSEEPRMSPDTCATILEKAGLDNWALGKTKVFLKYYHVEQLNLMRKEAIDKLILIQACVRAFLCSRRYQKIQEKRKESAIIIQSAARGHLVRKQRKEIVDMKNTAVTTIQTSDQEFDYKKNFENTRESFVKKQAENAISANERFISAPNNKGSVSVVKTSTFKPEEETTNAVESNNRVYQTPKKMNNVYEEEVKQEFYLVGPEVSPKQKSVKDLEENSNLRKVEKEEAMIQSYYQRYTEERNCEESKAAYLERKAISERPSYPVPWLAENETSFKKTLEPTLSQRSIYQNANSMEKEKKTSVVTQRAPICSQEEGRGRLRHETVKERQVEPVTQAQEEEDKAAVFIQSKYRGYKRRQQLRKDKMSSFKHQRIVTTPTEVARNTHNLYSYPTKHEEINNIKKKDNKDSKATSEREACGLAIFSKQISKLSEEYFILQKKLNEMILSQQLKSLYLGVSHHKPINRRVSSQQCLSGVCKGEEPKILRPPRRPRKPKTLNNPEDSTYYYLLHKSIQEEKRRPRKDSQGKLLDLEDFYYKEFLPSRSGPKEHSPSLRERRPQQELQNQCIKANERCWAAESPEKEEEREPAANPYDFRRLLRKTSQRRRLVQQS

[18] = tested on: Phosphatidylinositol 4,5-bisphosphate 3-kinase catalytic subunit alpha isoform (Homo sapiens), P42336 [H1047Y]; assay: Binding affinity to human partial length PIK3CA H1047Y mutant (R108 to N1068 residues) expressed in mammalian expression system assessed as residual binding level at 10 uM by Kinomescan method relative to control
[19] = target: Phosphatidylinositol 4,5-bisphosphate 3-kinase catalytic subunit gamma isoform (Homo sapiens) (UniProt P48736); assay: Binding affinity to wild-type human partial length PIK3CG (S144 to A1102 residues) expressed in mammalian expression system assessed as residual binding level at 10 uM by Kinomescan method relative to control
[20] = target: Rho-associated protein kinase 2 (Homo sapiens) (UniProt O75116); assay: Binding affinity to wild-type human partial length ROCK2 (M1 to T431 residues) expressed in mammalian expression system assessed as residual binding level at 10 uM by Kinomescan method relative to control
[21] = target: Ribosomal protein S6 kinase beta-1 (Homo sapiens) (UniProt P23443); assay: Binding affinity to wild-type human partial length S6K1 (M1 to S421 residues) expressed in mammalian expression system assessed as residual binding level at 10 uM by Kinomescan method relative to control
[22] = target: NUAK family SNF1-like kinase 2 (Homo sapiens) (UniProt Q9H093); assay: Binding affinity to wild-type human partial length SNARK (P22 to A333 residues) expressed in mammalian expression system assessed as residual binding level at 10 uM by Kinomescan method relative to control
Chain of NUAK family SNF1-like kinase 2 (Homo sapiens) (Q9H093 whole entry, the tested form may be a part): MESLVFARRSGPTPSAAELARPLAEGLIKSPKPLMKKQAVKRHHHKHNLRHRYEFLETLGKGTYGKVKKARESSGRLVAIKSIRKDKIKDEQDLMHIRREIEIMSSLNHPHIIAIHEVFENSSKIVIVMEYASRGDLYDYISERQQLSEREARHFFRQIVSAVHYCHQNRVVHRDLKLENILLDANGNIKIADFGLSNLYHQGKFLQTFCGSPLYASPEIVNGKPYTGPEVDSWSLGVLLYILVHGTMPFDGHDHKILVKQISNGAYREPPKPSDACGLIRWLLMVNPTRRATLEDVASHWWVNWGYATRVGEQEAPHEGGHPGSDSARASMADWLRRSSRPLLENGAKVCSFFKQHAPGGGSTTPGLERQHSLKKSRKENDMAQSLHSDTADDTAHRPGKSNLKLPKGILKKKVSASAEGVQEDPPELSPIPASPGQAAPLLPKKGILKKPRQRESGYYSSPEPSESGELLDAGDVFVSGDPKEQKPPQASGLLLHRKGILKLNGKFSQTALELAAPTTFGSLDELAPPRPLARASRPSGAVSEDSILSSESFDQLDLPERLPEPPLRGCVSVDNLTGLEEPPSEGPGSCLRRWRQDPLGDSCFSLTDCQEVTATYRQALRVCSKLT

[23] = target: Proto-oncogene tyrosine-protein kinase Src (Homo sapiens) (UniProt P12931); assay: Binding affinity to wild-type human partial length SRC (L240 to L536 residues) expressed in bacterial expression system assessed as residual binding level at 10 uM by Kinomescan method relative to control
[24] = target: Angiopoietin-1 receptor (Homo sapiens) (UniProt Q02763); assay: Binding affinity to wild-type human partial length TIE2 (N804 to T1112 residues) expressed in bacterial expression system assessed as residual binding level at 10 uM by Kinomescan method relative to control

Chain of AP2-associated protein kinase 1 (Homo sapiens) (Q2M2I8 whole entry, looked up, the tested form may be a part): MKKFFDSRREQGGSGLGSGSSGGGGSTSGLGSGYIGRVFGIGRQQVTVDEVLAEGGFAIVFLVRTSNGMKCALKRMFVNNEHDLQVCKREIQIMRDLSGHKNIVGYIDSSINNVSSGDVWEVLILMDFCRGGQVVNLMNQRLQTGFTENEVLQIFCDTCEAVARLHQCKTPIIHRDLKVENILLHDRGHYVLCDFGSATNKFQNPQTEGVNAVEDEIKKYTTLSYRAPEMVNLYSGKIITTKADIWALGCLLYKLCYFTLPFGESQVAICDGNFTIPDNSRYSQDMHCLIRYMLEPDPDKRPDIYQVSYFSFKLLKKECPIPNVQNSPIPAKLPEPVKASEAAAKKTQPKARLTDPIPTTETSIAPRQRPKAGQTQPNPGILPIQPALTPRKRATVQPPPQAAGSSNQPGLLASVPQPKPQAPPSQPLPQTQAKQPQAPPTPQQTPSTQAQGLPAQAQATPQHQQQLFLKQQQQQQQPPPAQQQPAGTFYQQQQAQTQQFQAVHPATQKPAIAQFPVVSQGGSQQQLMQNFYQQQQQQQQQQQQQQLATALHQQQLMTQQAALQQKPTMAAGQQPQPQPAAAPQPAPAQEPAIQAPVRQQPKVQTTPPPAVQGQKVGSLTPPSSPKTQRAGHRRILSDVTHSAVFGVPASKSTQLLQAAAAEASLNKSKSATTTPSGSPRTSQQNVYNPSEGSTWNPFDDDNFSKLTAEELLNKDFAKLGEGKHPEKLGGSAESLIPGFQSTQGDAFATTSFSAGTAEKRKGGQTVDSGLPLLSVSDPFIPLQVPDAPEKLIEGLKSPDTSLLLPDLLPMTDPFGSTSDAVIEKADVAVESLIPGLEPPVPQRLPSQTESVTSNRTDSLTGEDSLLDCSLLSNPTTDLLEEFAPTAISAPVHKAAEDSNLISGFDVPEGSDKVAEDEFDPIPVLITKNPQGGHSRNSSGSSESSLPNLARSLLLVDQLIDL

O=C(Nc1cc(-c2cn(CCNc3c4c(nc5ccccc35)CCCC4)nn2)ccn1)Nc1cccc2c1C1CCCCN1C2=O (racemic)
Activity [1]: 13%
Activity [2]: 0.5%
Activity [3]: 0.95%
Activity [4]: 74%
Activity [5]: 0.1%
Activity [6]: 90%
Activity [7]: 79%
Activity [8]: 94%
Activity [9]: 73%
Activity [10]: 94%
Activity [11]: 100%
Activity [12]: 0.55%
Activity [13]: 60%
Activity [14]: 100%
Activity [15]: 100%
Activity [16]: 49%
Activity [17]: 75%
Activity [18]: 86%
Activity [19]: 100%
Activity [20]: 26%
Activity [21]: 10%
Activity [22]: 1.9%
Activity [23]: 24%
Activity [24]: 77%

From ChEMBL document CHEMBL4390652, “Design, biological evaluation and X-ray crystallography of nanomolar multifunctional ligands targeting simultaneously acetylcholinesterase and glycogen synthase kinase-3” (Eur J Med Chem, 2019)
